Assay results reported in publication PMC9487510, “A Novel Oral GyrB/ParE Dual Binding Inhibitor Effective against Multidrug-Resistant Neisseria gonorrhoeae and Other High-Threat Pathogens” (Antimicrobial Agents and Chemotherapy, 2022).
Converted amounts (≈) assume the structure as drawn. Where two headings read alike, the source gives them in different places.

Assays:
MRSA [1] = type: cell-based, S. aureus; settings: at 1× MIC; resistance not observed; data not shown
[2] = Kinetic aqueous solubility; type: physicochemical; settings: aqueous medium (not further specified)
E. coli = test: microbe, parasite or virus in culture; type: cell-based; settings: Escherichia coli
[3] = Liver microsome stability, human; type: in vitro ADME; settings: liver microsomes
Description: Liver microsome stability assays were performed by BioDuro Inc. Human and mouse (CD-1 male) liver microsomes were used. […] Next, 50 μL of reaction buffer was added to solution and mixed via pipetting up and down 6 times. At each time point of 0, 30, and 60 min, an aliquot of 20 μL was removed from each tube. Liver microsomes (LM) working solution was prepared in 0.05 M phosphate reaction buffer (pH = 7.4) to a final concentration of 1.27 mg/mL. NADPH solution was prepared in 0.05 M phosphate buffer to afford a 5 mM buffer solution. […] After vortexing and incubating for 5 min (37°C), 50 μL of NADPH solution was added and mixed via pipetting. At each time point of 0, 5, 15, 30, and 60 min, an aliquot of 20 μL was removed from each tube. Next, 250 μL of quenching solution was aliquoted to quench the reaction, which was then vortexed for 1 min and placed on ice for 40 min. After centrifugation at 4,000 × g for 15 min, 100 μL of supernatant was transferred using a multichannel pipette to 0.65-mL tubes. Samples were diluted with MeOH: H2O (1:1) as necessary. Samples were analyzed by high-pressure liquid chromatography coupled to tandem mass spectrometry (LC/MS/MS) performed on a Sciex Applied Biosystems Qtrap 4000 triple-quadrupole mass spectrometer coupled to a Shimadzu HPLC system to quantify the remaining compound. […]

MRSA [4] = test: MIC, in vitro susceptibility testing (CLSI); type: cell-based, Staphylococcus aureus; settings: for MIC: Staphylococcus aureus, MRSA

With CNc1cc(F)cc2c1[nH]c1nc(Oc3cnc(C)nc3)nc(N3CCC4(CC3)CO[C@@H](CO)C4)c12 [JSF-2414] the spontaneous resistance frequency (MRSA [1]) was < 5.0 × 10^−9, the solubility kinetic [2] was 0.576 µM (≈ 0.284 µg/mL) and the MIC (E. coli) was 0.5 µg/mL (≈ 1.01 µM). It also gave a microsomal CLint at 1 μM ([3]; pH 7.4, read-out: HLM Clint) of 2.1 µL/min/mg, a half-life at 1 μM ([3]; pH 7.4, read-out: HLM t1/2) of 5.5 h and an MIC range (MRSA [4]; 101 strains (Van: 8)) of 0.002 to 0.125 µg/mL. For the same compound, the MIC (MRSA [4]; 101 clinical MRSA strains, read-out: modal MIC) was 0.031 µg/mL (≈ 0.0628 µM), the MIC (MRSA [4]; ciprofloxacin-resistant strains (MIC >4 μg/mL), n = 30, read-out: modal MIC) was 0.062 µg/mL (≈ 0.126 µM) and the MIC (MRSA [4]; discussion, read-out: MIC) was 0.031 µg/mL (≈ 0.0628 µM). For the same compound, the MIC (MRSA [4]; strain 2 11 41, read-out: MIC) was 0.062 µg/mL (≈ 0.126 µM), the MIC (MRSA [4]; strain 2 11 42, read-out: MIC) was 0.016 µg/mL (≈ 0.0324 µM) and the MIC (MRSA [4]; strain 2 11 43, read-out: MIC) was 0.062 µg/mL (≈ 0.126 µM). The MIC (MRSA [4]; strain 2 11 56, read-out: MIC) was 0.004 µg/mL (≈ 0.0081 µM), the MIC (MRSA [4]; strain 2 11 57, read-out: MIC) was 0.125 µg/mL (≈ 0.253 µM) and the MIC (MRSA [4]; strain 2 11 58, read-out: MIC) was 0.002 µg/mL (≈ 0.00405 µM). The MIC (MRSA [4]; strain 2 11 60, read-out: MIC) was 0.004 µg/mL (≈ 0.0081 µM), the MIC (MRSA [4]; strain 2 11 61, read-out: MIC) was 0.004 µg/mL (≈ 0.0081 µM) and the MIC (MRSA [4]; strain 2 11 65, read-out: MIC) was 0.062 µg/mL (≈ 0.126 µM). It also gave an MIC (MRSA [4]; strain 2 11 66, read-out: MIC) of 0.062 µg/mL (≈ 0.126 µM), an MIC (MRSA [4]; strain 2 11 67, read-out: MIC) of 0.004 µg/mL (≈ 0.0081 µM) and an MIC (MRSA [4]; strain 2 11 68, read-out: MIC) of 0.004 µg/mL (≈ 0.0081 µM). It also gave an MIC (MRSA [4]; strain 2 11 71, read-out: MIC) of 0.062 µg/mL (≈ 0.126 µM), an MIC (MRSA [4]; strain 2 11 74, read-out: MIC) of 0.062 µg/mL (≈ 0.126 µM) and an MIC (MRSA [4]; strain 2 11 75, read-out: MIC) of 0.008 µg/mL (≈ 0.0162 µM). For the same compound, the MIC (MRSA [4]; strain 2 11 79, read-out: MIC) was 0.062 µg/mL (≈ 0.126 µM), the MIC (MRSA [4]; strain 2 11 80, read-out: MIC) was 0.002 µg/mL (≈ 0.00405 µM) and the MIC (MRSA [4]; strain 2 11 83, read-out: MIC) was 0.062 µg/mL (≈ 0.126 µM). It also gave an MIC (MRSA [4]; strain 2 11 84, read-out: MIC) of 0.031 µg/mL (≈ 0.0628 µM), an MIC (MRSA [4]; strain 2 11 86, read-out: MIC) of 0.002 µg/mL (≈ 0.00405 µM) and an MIC (MRSA [4]; strain 2 11 87, read-out: MIC) of 0.062 µg/mL (≈ 0.126 µM). It also gave an MIC (MRSA [4]; strain 2 11 90, read-out: MIC) of 0.125 µg/mL (≈ 0.253 µM), an MIC (MRSA [4]; strain 2 11 91, read-out: MIC) of 0.016 µg/mL (≈ 0.0324 µM) and an MIC (MRSA [4]; strain 2 11 99, read-out: MIC) of 0.008 µg/mL (≈ 0.0162 µM). The MIC (MRSA [4]; strain 2 12 13, read-out: MIC) was 0.125 µg/mL (≈ 0.253 µM), the MIC (MRSA [4]; strain 2 12 76, read-out: MIC) was 0.031 µg/mL (≈ 0.0628 µM) and the MIC (MRSA [4]; strain 2 12 78, read-out: MIC) was 0.016 µg/mL (≈ 0.0324 µM). It also gave an MIC (MRSA [4]; strain 2 12 88, read-out: MIC) of 0.004 µg/mL (≈ 0.0081 µM), an MIC (MRSA [4]; strain 2 13 19, read-out: MIC) of 0.016 µg/mL (≈ 0.0324 µM) and an MIC (MRSA [4]; strain 2 13 23, read-out: MIC) of 0.125 µg/mL (≈ 0.253 µM). The MIC (MRSA [4]; strain 2 13 26, read-out: MIC) was 0.004 µg/mL (≈ 0.0081 µM), the MIC (MRSA [4]; strain 2 13 27, read-out: MIC) was 0.016 µg/mL (≈ 0.0324 µM) and the MIC (MRSA [4]; strain 2 13 29, read-out: MIC) was 0.002 µg/mL (≈ 0.00405 µM). The MIC (MRSA [4]; strain 2 13 32, read-out: MIC) was 0.004 µg/mL (≈ 0.0081 µM), the MIC (MRSA [4]; strain 2 13 33, read-out: MIC) was 0.016 µg/mL (≈ 0.0324 µM) and the MIC (MRSA [4]; strain 2 13 41, read-out: MIC) was 0.125 µg/mL (≈ 0.253 µM). For the same compound, the MIC (MRSA [4]; strain 2 13 43, read-out: MIC) was 0.062 µg/mL (≈ 0.126 µM), the MIC (MRSA [4]; strain 2 13 47, read-out: MIC) was 0.125 µg/mL (≈ 0.253 µM) and the MIC (MRSA [4]; strain 2 13 48, read-out: MIC) was 0.002 µg/mL (≈ 0.00405 µM). The MIC (MRSA [4]; strain 2 13 52, read-out: MIC) was 0.002 µg/mL (≈ 0.00405 µM), the MIC (MRSA [4]; strain 2 13 53, read-out: MIC) was 0.062 µg/mL (≈ 0.126 µM) and the MIC (MRSA [4]; strain 2 13 54, read-out: MIC) was 0.062 µg/mL (≈ 0.126 µM). For the same compound, the MIC (MRSA [4]; strain 2 13 55, read-out: MIC) was 0.062 µg/mL (≈ 0.126 µM), the MIC (MRSA [4]; strain 2 13 56, read-out: MIC) was 0.062 µg/mL (≈ 0.126 µM) and the MIC (MRSA [4]; strain 2 13 57, read-out: MIC) was 0.016 µg/mL (≈ 0.0324 µM). The MIC (MRSA [4]; strain 2 13 58, read-out: MIC) was 0.031 µg/mL (≈ 0.0628 µM), the MIC (MRSA [4]; strain 2 35 90, read-out: MIC) was 0.016 µg/mL (≈ 0.0324 µM) and the MIC (MRSA [4]; strain 2 36 04, read-out: MIC) was 0.031 µg/mL (≈ 0.0628 µM). It also gave an MIC (MRSA [4]; strain 2 36 17, read-out: MIC) of 0.031 µg/mL (≈ 0.0628 µM), an MIC (MRSA [4]; strain 2 36 31, read-out: MIC) of 0.031 µg/mL (≈ 0.0628 µM) and an MIC (MRSA [4]; strain 2 66 36, read-out: MIC) of 0.016 µg/mL (≈ 0.0324 µM). For the same compound, the MIC (MRSA [4]; strain 2 66 41, read-out: MIC) was 0.016 µg/mL (≈ 0.0324 µM) and the MIC (MRSA [4]; strain 2 78 41, read-out: MIC) was 0.062 µg/mL (≈ 0.126 µM).
